Each compound was assayed against T1, VLA-4 (Homo sapiens, UniProt P05556+P13612) (assay: VLA-4 direct binding assay (VCAM-IgG alkaline phosphatase conjugate binding to Jurkat cells)). Details: Table 1, Structure-Activity; assay and unit inferred; read-out: Act.
T1 construct: endogenous in cells; host or cells: Jurkat cells
Text: A direct binding assay may also be employed to quantitate the inhibitory activity of the compounds of this invention. (“DBA”) In direct binding assays, for example, a VCAM-IgG fusion protein containing the first two immunoglobulin domains of VCAM (D1D2) attached above the hinge region of an IgG1 molecule (“VCAM 2D-IgG”), is conjugated to a marker enzyme, such as alkaline phosphatase (“AP”). The synthesis of this VCAM-IgG fusion is described in PCT publication WO 90/13300, the disclosure of which is herein incorporated by reference. The conjugation of that fusion to a marker enzyme can be achieved by cross-linking methods well-known in the art.
The VCAM-IgG enzyme conjugate is then placed in the wells of a multi-well filtration plate, such as that contained in the Millipore Multiscreen Assay System (Millipore Corp., Bedford, Mass.). Varying concentrations of the test inhibitory compound are then added to the wells followed by addition of VLA-4-expressing cells. The cells, compound and VCAM-IgG enzyme conjugate are mixed together and allowed to incubate at room temperature.
Following incubation, the wells are vacuum drained, leaving behind the cells and any bound VCAM. Quantitation of bound VCAM is determined by adding an appropriate calorimetric substrate for the enzyme conjugated to VCAM-IgG and determining the amount of reaction product. Decreased reaction product indicates increased binding inhibitory activity. The protocol is described more specifically below:
1. Block a 96 well Millipore Multiscreen Assay System filtration plate^1 with 200:l/well of blocking buffer (1×Phosphate Buffered Saline, 0.1%Tween 20, 1%BSA) for at least 1 hour at room temperature.
2. Drain the plate with the vacuum manifold, and wash with 200 μl/well of assay buffer (Tris Buffered Saline, 0.1% BSA, 2 mM glucose, 10 mM HEPES, pH 7.5) draining the plate in between. Repeat twice. Then blot the plate bottom on paper to remove excess buffer.
3. Prepare a 4 μg/ml VCAMIg-AP solution (Alkaline phosphatase coupled to VCAMIg) in assay buffer and filter with a 0.2:low protein binding syringe filter (Gelman Sciences #4454). From this stock, prepare a 0.4 μg/ml working solution of VCAMIg-AP in assay buffer. Add 25:l of 0.4 μg/ml VCAMIg-AP to every well.
5. Prepare dilutions of compounds to be tested in assay buffer. Concentrations should be 4× the desired final concentration and run in triplicate. Add 25 μl of the compound dilutions to designated wells.
7. Jurkat cells are centrifuged to remove cell culture media and washed once in assay buffer. Resuspend the washed Jurkat cells to a concentration of 8×10^6/ml in assay buffer containing 2 mM MnCl2. Pipeting the mixture up and down to ensure a uniform cell suspension. Add 50:l of cell suspension to each well except the NSB wells.
8. Gently tap the sides of the plate to mix well contents. Incubate the plate for 60 minutes at room temperature (RT).
9. Place the plate on the vacuum manifold to drain the well contents. Wash twice with 100 μl/well of wash buffer (assay buffer containing 1 mM MnCl2). Drain the plate and blot on paper towels.
10. Add 10 mg/ml of 4-Nitro phenyl phosphate to Substrate buffer (0.1M glycine, 1 mM ZnCl2, 1 mM MgCl2, pH 10.5). Add 100 μl/well and incubate for exactly 30 minutes at RT.
11. To stop the reaction, add 100 μl/well of 3N NaOH.
12. Read the 96-well plate in a Molecular Devices ELISA platereader at 405 nm. Analyze data with SoftMax software.

T1 sequence (P13612 34-1032): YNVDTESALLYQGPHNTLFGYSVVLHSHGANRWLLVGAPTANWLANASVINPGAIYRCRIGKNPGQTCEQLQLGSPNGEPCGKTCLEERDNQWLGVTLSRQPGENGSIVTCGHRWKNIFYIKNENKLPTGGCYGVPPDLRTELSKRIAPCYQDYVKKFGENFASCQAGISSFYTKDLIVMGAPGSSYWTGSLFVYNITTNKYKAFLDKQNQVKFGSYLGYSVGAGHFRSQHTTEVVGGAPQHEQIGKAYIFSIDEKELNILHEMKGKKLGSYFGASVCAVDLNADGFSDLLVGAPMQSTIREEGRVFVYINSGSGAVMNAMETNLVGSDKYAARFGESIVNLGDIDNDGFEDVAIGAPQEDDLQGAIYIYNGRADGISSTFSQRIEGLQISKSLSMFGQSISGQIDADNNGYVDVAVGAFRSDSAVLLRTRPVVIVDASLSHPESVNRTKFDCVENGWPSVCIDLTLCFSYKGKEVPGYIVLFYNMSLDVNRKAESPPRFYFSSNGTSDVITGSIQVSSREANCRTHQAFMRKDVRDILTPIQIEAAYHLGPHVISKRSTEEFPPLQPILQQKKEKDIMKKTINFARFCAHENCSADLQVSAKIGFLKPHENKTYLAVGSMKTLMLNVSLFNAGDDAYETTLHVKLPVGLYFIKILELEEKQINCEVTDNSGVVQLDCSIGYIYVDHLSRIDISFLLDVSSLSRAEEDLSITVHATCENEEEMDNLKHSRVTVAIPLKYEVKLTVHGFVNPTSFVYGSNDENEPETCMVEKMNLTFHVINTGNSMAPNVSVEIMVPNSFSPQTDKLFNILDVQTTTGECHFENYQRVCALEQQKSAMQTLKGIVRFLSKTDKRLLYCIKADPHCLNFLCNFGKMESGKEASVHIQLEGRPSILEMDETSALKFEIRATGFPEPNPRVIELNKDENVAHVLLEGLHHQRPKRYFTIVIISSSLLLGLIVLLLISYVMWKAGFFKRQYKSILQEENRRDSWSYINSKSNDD
T1 sequence (P05556 21-798): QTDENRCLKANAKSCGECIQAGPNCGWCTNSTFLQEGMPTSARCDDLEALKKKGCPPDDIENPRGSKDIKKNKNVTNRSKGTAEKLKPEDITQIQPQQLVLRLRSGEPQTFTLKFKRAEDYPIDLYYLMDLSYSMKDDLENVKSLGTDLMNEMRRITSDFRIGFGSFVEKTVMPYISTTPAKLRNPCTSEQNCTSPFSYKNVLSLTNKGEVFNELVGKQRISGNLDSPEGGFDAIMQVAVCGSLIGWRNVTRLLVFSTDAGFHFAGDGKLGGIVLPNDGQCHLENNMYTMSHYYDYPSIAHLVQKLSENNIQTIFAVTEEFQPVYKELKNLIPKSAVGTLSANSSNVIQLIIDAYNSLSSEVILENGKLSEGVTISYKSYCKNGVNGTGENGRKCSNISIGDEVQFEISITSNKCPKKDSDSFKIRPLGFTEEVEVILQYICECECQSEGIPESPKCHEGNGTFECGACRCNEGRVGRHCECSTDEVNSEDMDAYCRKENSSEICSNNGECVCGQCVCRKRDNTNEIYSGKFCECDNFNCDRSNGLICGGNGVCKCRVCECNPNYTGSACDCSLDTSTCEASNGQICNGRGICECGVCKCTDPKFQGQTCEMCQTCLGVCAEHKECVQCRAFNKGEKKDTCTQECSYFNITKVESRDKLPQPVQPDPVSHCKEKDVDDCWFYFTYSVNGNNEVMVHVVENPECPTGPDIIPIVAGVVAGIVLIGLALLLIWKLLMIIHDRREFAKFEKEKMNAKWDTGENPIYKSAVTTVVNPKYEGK

Going from `Cc1ccccc1NC(=O)Nc1ccc(NC(=O)[C@@H]2CSCN2C(=O)CCCCC(=O)O)cc1` [CX12] to `Cc1ccccc1NC(=O)Nc1ccc(NC(=O)[C@@H]2CCCN2C(=O)CCCC(=O)O)cc1` [CX8], the IC50 rises from 63.5 nM to 480 nM (7.6-fold). The first is the more potent here.

First: COC(=O)CN1C(=O)CN(CCC(=O)O)C(=O)c2cc(NC(=O)Cc3ccc(NC(=O)Nc4ccccc4C)cc3)ccc21 [BX57]
Second: Cc1ccccc1NC(=O)Nc1ccc(CC(=O)Nc2ccc3c(c2)C(=O)N(CCC(=O)O)CC(=O)N3CC2CC2)cc1 [BX46]
The IC50 of the first is 1.7-fold lower: 113 nM for the first, 194 nM for the second. The first is the more potent here.

First: Cc1ccccc1NC(=O)Nc1ccc(CC(=O)Nc2cc(OCCCC(=O)O)cc(OCCC(C)C)c2)cc1 [RX16]
Second: CCOc1cc(NC(=O)Cc2ccc(NC(=O)Nc3ccccc3C)cc2)cc(OCCCC(=O)O)c1 [RX27]
The IC50 of the first is 11-fold higher: 574 nM for the first, 50 nM for the second.

Going from `COc1cccc(C(=O)N(CCC(=O)O)CC(=O)N(CCC(C)C)CC(=O)Nc2ccc(N3CCOCC3)c(Cl)c2)c1` [AX9] to `COc1cccc(C(=O)N(CCC(=O)O)CC(=O)N(CCC(C)C)CC(=O)Nc2ccc(-n3cnc(Cl)c3Cl)cc2)c1` [AX4], the IC50 rises from 7380 nM to 15200 nM (2.1-fold). The first is the more potent here.

Going from `Cc1ccccc1NC(=O)Nc1ccc(CC(=O)Nc2ccc3c(c2)C(=O)N(CCC(=O)O)CC(=O)N3CC2CCCO2)cc1` (stereo not drawn) [BX55] to `Cc1ccccc1NC(=O)Nc1ccc(CC(=O)Nc2ccc3c(c2)C(=O)N(C)CC(=O)N3CCC(=O)O)cc1` [BX42], the IC50 rises from 120 nM to 326 nM (2.7-fold). The first is the more potent here.

Compared with `Cc1ccccc1NC(=O)Nc1ccc(CNC(=O)C(CC(=O)NC(CC(=O)O)c2ccc3c(c2)OCO3)CC(C)C)cc1` (stereo not drawn) [SX34], `Cc1ccccc1NC(=O)Nc1ccc(NC(=O)C[C@@H](CC(C)C)C(=O)NC(CC(=O)O)c2ccc3c(c2)OCO3)cc1` (stereo partly drawn) [SX56] is 9.1-fold lower in IC50: 500 nM for the first, 55 nM for the second. The second is the more potent here.

Going from `Cc1ccccc1NC(=O)Nc1ccc(CC(=O)Nc2ccc3c(c2)C(=O)N(C(CC(=O)O)C(=O)O)CC(=O)N3CCC(=O)O)cc1` (stereo not drawn) [BX62] to `Cc1ccccc1NC(=O)Nc1ccc(CC(=O)Nc2ccc3c(c2)C(=O)N(C(C)CC(=O)O)CC(=O)N3C)cc1` (stereo not drawn) [BX67], the IC50 falls from 95 nM to 62.5 nM (1.5-fold).

Compared with `COc1cccc(C(=O)N(CCC(=O)O)CC(=O)N(CCC(C)C)CC(=O)Nc2cccc(C(=O)CC(=O)Nc3nccs3)c2)c1` [AX15], `COc1cccc(C(=O)N(CCC(=O)O)CC(=O)N(CCC(C)C)CC(=O)Nc2ccc(C(=O)CC(=O)Nc3ccccc3Cl)cc2)c1` [AX23] is 4.2-fold lower in IC50: 2410 nM for the first, 580 nM for the second. The second is the more potent here.

Compared with `COc1ccc(C(CC(=O)O)NC(=O)C(CC(=O)NCc2ccccc2)CC(C)C)cc1` (stereo not drawn) [SX28], `COc1ccc(C(CC(=O)O)NC(=O)C(CC(=O)Nc2ccc(NC(=O)Nc3ccccc3C)cc2)CC(C)C)cc1` (stereo not drawn) [SX13] is 4.9-fold higher in IC50: 717 nM for the first, 3490 nM for the second. The first is the more potent here.

Compared with `COc1ccc([C@H](CC(=O)O)NC(=O)C(CC(=O)Nc2ccc(CCCc3ccccc3)cc2)CC(C)C)cc1OC` (stereo partly drawn) [SX14], `COc1ccc([C@H](CC(=O)O)NC(=O)C(CC(=O)Nc2ccc(CCc3ccccc3C)cc2)CC(C)C)cc1OC` (stereo partly drawn) [SX39] is 21-fold lower in IC50: 8240 nM for the first, 397 nM for the second. The second is the more potent here.

`Cc1ccccc1NC(=O)Nc1ccc(CC(=O)Nc2ccc3c(c2)C(=O)N(CC(C)C(=O)O)CC(=O)N3C)cc1` (stereo not drawn) [BX50] and `COC(=O)C(C(C)C)N1C(=O)CN(CCC(=O)O)C(=O)c2cc(NC(=O)Cc3ccc(NC(=O)Nc4ccccc4C)cc3)ccc21` (stereo not drawn) [BX63] are within 1.5-fold of each other in IC50: 52.3 nM for the first, 75 nM for the second.

First: COc1ccc([C@H](CC(=O)O)NC(=O)C(C)CC(=O)Nc2ccc(NC(=O)Nc3ccccc3C)cc2)cc1OC (stereo partly drawn) [SX9]
Second: COc1ccc(C(CC(=O)O)NC(=O)[C@@H](CC(=O)Nc2ccc(NC(=O)Nc3ccccc3C)cc2)CC(C)C)cc1OC (stereo partly drawn) [SX44]
The IC50 of the first is 22-fold higher: 5120 nM for the first, 233 nM for the second. The second is the more potent here.

Going from `COc1ccc(C(=O)N(CCC(=O)O)CC(=O)N(CCC(C)C)CC(=O)Nc2ccccc2)cc1` [AX7] to `COc1cccc(C(=O)N(CCC(=O)O)CC(=O)N(CCC(C)C)CC(=O)Nc2cccc(OCCOc3ccccc3)c2)c1` [AX13], the IC50 falls from 11500 nM to 3160 nM (3.6-fold).

Compared with `Cc1ccccc1NC(=O)Nc1ccc(NC(=O)CC(CC(C)C)C(=O)N[C@@H](CC(=O)O)CN2CCOCC2)cc1` (stereo partly drawn) [SX7], `Cc1ccccc1NC(=O)Nc1ccc(NC(=O)CC(CC(C)C)C(=O)NC(C)CC(=O)O)cc1` (stereo not drawn) [SX50] is 36-fold lower in IC50: 5980 nM for the first, 167 nM for the second. The second is the more potent here.

Going from `Cc1ccccc1NC(=O)Nc1ccc(CC(=O)Nc2cccc(OCCC(=O)O)c2)cc1` [RX19] to `Cc1ccccc1NC(=O)Nc1ccc(NC(=O)Nc2cccc(OCCCC(=O)O)c2)cc1` [RX13], the IC50 rises from 317 nM to 686 nM (2.2-fold).

`Cc1ccccc1NC(=O)Nc1ccc(NC(=O)CN(CCC(=O)O)C(=O)CN(CCC(=O)O)C(=O)c2ccccc2)cc1` [AX38] and `Cc1ccccc1NC(=O)Nc1ccc(NC(=O)[C@@H]2CSCN2C(=O)CN(CCC(=O)O)C(=O)c2ccccc2)cc1` [AX39] are the same in IC50: 60 nM for the first, 60 nM for the second.

`Cc1ccccc1NC(=O)Nc1ccc(NC(=O)c2ccc3c(c2)C(=O)N(CCC(=O)O)CC(=O)N3C)cc1` [BX17] and `Cc1ccccc1NC(=O)Nc1ccc(C(=O)NCc2ccc3c(c2)C(=O)N(CCC(=O)O)CC(=O)N3C)cc1` [BX29] are within 1.5-fold of each other in IC50: 977 nM for the first, 825 nM for the second.

Going from `Cc1ccccc1NC(=O)Nc1ccc(CC(=O)Nc2cccc(S(=O)(=O)NCCC(=O)O)c2)cc1` [RX5] to `Cc1ccccc1NC(=O)Nc1ccc(CC(=O)Nc2cccc(S(=O)(=O)NC(C)CC(=O)O)c2)cc1` (stereo not drawn) [RX2], the IC50 rises from 3810 nM to 10600 nM (2.8-fold).

`COc1ccc([C@H](CC(=O)O)NC(=O)C(CC(=O)Nc2ccc(/C=C/c3ccccc3C)cc2)CC(C)C)cc1OC` (stereo partly drawn) [SX40] and `COc1ccc([C@H](CC(=O)O)NC(=O)C(CC(=O)Nc2ccc(NC(=O)Nc3ccccc3)cc2)CC(C)C)cc1OC` (stereo partly drawn) [SX41] are within 1.5-fold of each other in IC50: 335 nM for the first, 310 nM for the second.

Compared with `COc1cc(NC(=O)Cc2ccc(NC(=O)Nc3ccccc3C)cc2)cc(OCCCC(=O)O)c1` [RX26], `Cc1ccccc1NC(=O)Nc1ccc(CC(=O)Nc2ccc(C(=O)O)c(OCCCC(=O)O)c2)cc1` [RX17] is 5.2-fold higher in IC50: 77.7 nM for the first, 406 nM for the second.

Going from `COc1cccc(C(=O)N(CCC(=O)O)CC(=O)N(CCC(C)C)CC(=O)Nc2ccc(-c3nnc(-c4ccccc4)o3)cc2)c1` [AX5] to `COc1cccc(C(=O)N(CCC(=O)O)CC(=O)N(CCC(C)C)CC(=O)Nc2ccc(NC(=O)c3cc4ccccc4cn3)cc2)c1` [AX16], the IC50 rises from 35 nM to 2840 nM (81-fold). The first is the more potent here.

Going from `COc1ccc(C(CC(=O)O)NC(=O)CCC(=O)Nc2ccc(NC(=O)Nc3ccccc3C)cc2)cc1OC` (stereo not drawn) [SX51] to `COc1ccc([C@H](CC(=O)O)NC(=O)CCC(=O)Nc2ccc(NC(=O)Nc3ccccc3)c(O)c2)cc1OC` [SX45], the IC50 rises from 142 nM to 216 nM (1.5-fold).

Compared with `Cc1ccccc1NC(=O)Nc1ccc(NC(=O)CN(CCC(C)C)C(=O)CN(CCC(=O)O)C(=O)CBr)cc1` [AX36], `Cc1ccccc1NC(=O)Nc1ccc(NC(=O)CN(CCC(C)C)C(=O)CN(CCC(=O)O)C(=O)C2CCCCC2)cc1` [AX29] is 14-fold higher in IC50: 63.2 nM for the first, 890 nM for the second. The first is the more potent here.

Going from `COCCN1CC(=O)N(CCC(=O)O)Cc2cc(NC(=O)Cc3ccc(NC(=O)Nc4ccccc4C)cc3)ccc21` [BX61] to `COCCCN1CC(=O)N(CCC(=O)O)Cc2cc(NC(=O)Cc3ccc(NC(=O)Nc4ccccc4C)cc3)ccc21` [BX70], the IC50 falls from 99.3 nM to 30.5 nM (3.3-fold). The second is the more potent here.

Going from `Cc1ccccc1NC(=O)Nc1ccc(CC(=O)NCc2cccc(OCC(=O)O)c2)cc1` [RX11] to `Cc1ccccc1NC(=O)Nc1ccc(CC(=O)Nc2ccc3c(c2)C(=O)N(CCC(=O)O)CC(=O)N3Cc2ccccc2)cc1` [BX58], the IC50 falls from 1140 nM to 116 nM (9.8-fold).

`COc1ccc([C@H](CC(=O)O)NC(=O)C(C)CC(=O)Nc2ccc(NC(=O)Nc3ccccc3)cc2)cc1OC` (stereo partly drawn) [SX53] and `C=CC[C@H](CC(=O)O)NC(=O)C(C)CC(=O)Nc1ccc(NC(=O)Nc2ccccc2C)cc1` (stereo partly drawn) [SX54] are within 1.5-fold of each other in IC50: 65 nM for the first, 58.5 nM for the second.

`Cc1ccccc1NC(=O)Nc1ccc(N(C)C(=O)CCC(=O)N[C@H](C)CC(=O)O)cc1` [SX48] and `Cc1ccccc1NC(=O)Nc1ccc(NC(=O)[C@@H]2CCCN2C(=O)CC(C)CC(=O)O)cc1` (stereo partly drawn) [CX10] are within 1.5-fold of each other in IC50: 195 nM for the first, 258 nM for the second.

First: Cc1ccccc1NC(=O)Nc1ccc(NC(=O)[C@@H]2CCCN2C(=O)NCCC(=O)O)cc1 [CX7]
Second: CN1C(=O)CN(CCC(=O)O)C(=O)c2cc(NC(=O)Cc3ccc(NC(=O)c4ccco4)cc3)ccc21 [BX12]
The IC50 of the first is 32-fold lower: 190 nM for the first, 6100 nM for the second.

Same assay, conditions: qualitative statement

With `Cc1ccccc1NC(=O)Nc1ccc(NC(=O)CN(C)C(=O)CN(CCC(=O)O)C(=O)c2ccccc2)cc1` [Compound A] the VLA-4 inhibitory activity was “having VLA-4 inhibitory activity”.

— patent publication US6686350B1, “Cell adhesion inhibitors” (Biogen, Inc., priority 1996, dated 2004)
